Results taken from PubChem BioAssay AID1963836 (Molecular Pharmacology Branch, DTP, NCI, 2024).
“And” between values parts separate entries of the source, which are not always exact repeats. Identical values can stand only once.

Tested on: 857933-349-R-J2-PDC complex spheroid viability
Test: Anticancer human tumor 857933-349-R-J2-PDC patient-derived colon adenocarcinoma cell line growth inhibition [POLQ]
Details: for viability, T/C: stronger effect = lower value; active = viability on the fitted dose curve at most 10% of control; inactive = the rest
Protocol: Multicellular complex tumor spheroid response to Polymerase (POL) inhibitors (novobiocin, ART-558, RP6685) in combination with a variety of drugs and investigational agents in selected tumor cell lines
The POL inhibitors (novobiocin, ART-558, and RP6685) were evaluated both individually and in combination with standard of care and investigational anticancer small molecules within a complex spheroid model of solid tumors. . Complex spheroids include a stromal component modeled by human endothelial cells (HUVEC) and fibroblasts modeled by human mesenchymal stem cells (MSCs). The concentration ranges selected for each drug and investigational agent were based upon clinically achievable concentrations if the clinical Cmax of the agent was known.
Compounds. The drugs and investigational agents: novobiocin (NSC847541), ART-558 (NSC835418), RP-6685 (NSC848927), peposertib (NSC802822), ceralasertib (NSC780249), elimusertib (NSC800525), camonsertib (NSC841442), AZD-1390 (NSC803789), olaparib (NSC753686), talazoparib (NSC767125), rucaparib (NSC756644), sotorasib (NSC818433), MRTX-1133 (NSC836407), SN-38 (NSC673596), topotecan (NSC609699), epotoside (NSC141540), doxorubicin (NSC123127), gemcitabine (NSC613327), 5-fluorouracil (NSC19893), paclitaxel (NSC125973), vemurafenib (NSC761431), MSA-2 (NSC828583), SN-011 (NSC837082), adavosertib (NSC754352), prexasertib (NSC758257), carboplatin (NSC241240) and oxaliplatin (NSC266046), were obtained from the National Cancer Institute (NCI) Developmental Therapeutics Program Chemical Repository (21). The FDA-approved anticancer drug set is available from the Developmental Therapeutics Program at https://dtp.cancer.gov/organization/dscb/obtaining/. […] The stock solutions were prepared in dimethyl sulfoxide (DMSO, Sigma-Aldrich, St. Louis, MO, cat. D2650), except for the platinum compounds which were prepared in saline (Quality Biological, Gaithersburg, MD, cat. 114-055-101), at 800-fold the tested concentration and stored at -70 degrees C prior to their use. All drugs and investigational agents were tested over a range starting from a high concentration at or near the clinical Cmax and decreasing in half-log increments. If the clinical Cmax for an agent had not been determined, the highest concentration tested was 10 microM, except for SN-38, which was tested at a high concentration of 1 microM.
Cell Culture. All cells were maintained in an incubator at 37 degrees C and 5% CO2 with 95% humidity. The PDC lines were cultured according to standard operating procedures established by the NCI PDMR (https://pdmr.cancer.gov). Table 3 of the manuscript, lists the cell lines along with the number of the three cell types plated to form the mct-spheroids and media for tumor cell growth. After thawing, all PDC lines, except 997537-175-T-J1-PDC and 415267-285-R-J2-PDC, were cultured in Matrigel-coated flasks prepared with a working solution of 1X Ham's F-12 nutrient mix, without supplementation (Thermo Fisher Scientific, cat. 11765054), 100 U/mL penicillin-streptomycin (Thermo Fisher Scientific, cat. 15140122), and 2.5% Matrigel (Corning Inc., Corning, NY, cat. 354248) for the first three passages. The two PDC lines 997537-175-T-J1-PDC and 415267-285-R-J2-PDC were cultured on uncoated flasks. The 857933-349-R-J2-PDC line was cultured in 6C/Colon 1B media containing advanced DMEM/F-12 (Thermo Fisher Scientific, cat. 12634028), 10 mM HEPES (Thermo Fisher Scientific, cat. 15630080), 1X GlutaMAX supplement (Thermo Fisher Scientific, cat. 35050061), 0.1 mg/mL primocin (InvivoGen, San Diego, CA, cat. ant-pm-2), 10% defined fetal bovine serum, heat inactivated (HyClone Laboratories Inc., Logan, UT, cat. SH30070.03HI), 50% L-WRN conditioned media (ATCC, cat. CRL-3276), 1.25 mM N-Acetyl-L-cysteine (Sigma-Aldrich, cat. A9165), 10 mM nicotinamide (Sigma-Aldrich, cat. N0636), 1X B-27 supplement (Thermo Fisher Scientific, cat. 17504044), 1X N-2 supplement (Thermo Fisher Scientific, cat. […]

[1] = curve of first compound, second compound 0.0316 µM
[2] = curve of first compound, second compound 0.1 µM
[3] = curve of first compound, second compound 0.316 µM
[4] = curve of first compound, second compound 1 µM
[5] = curve of first compound, second compound 3.16 µM
[6] = curve of first compound, second compound 10 µM
[7] = second compound 0.0316 µM, first compound 0.0316 µM
[8] = second compound 0.0316 µM, first compound 0.1 µM
[9] = second compound 0.0316 µM, first compound 0.316 µM
[10] = second compound 0.0316 µM, first compound 1 µM
[11] = second compound 0.0316 µM, first compound 3.16 µM
[12] = second compound 0.0316 µM, first compound 10 µM
[13] = second compound 0.1 µM, first compound 0.0316 µM
[14] = second compound 0.1 µM, first compound 0.1 µM
[15] = second compound 0.1 µM, first compound 0.316 µM
[16] = second compound 0.1 µM, first compound 1 µM
[17] = second compound 0.1 µM, first compound 3.16 µM
[18] = second compound 0.1 µM, first compound 10 µM
[19] = second compound 0.316 µM, first compound 0.0316 µM
[20] = second compound 0.316 µM, first compound 0.1 µM
[21] = second compound 0.316 µM, first compound 0.316 µM
[22] = second compound 0.316 µM, first compound 1 µM
[23] = second compound 0.316 µM, first compound 3.16 µM
[24] = second compound 0.316 µM, first compound 10 µM
[25] = second compound 1 µM, first compound 0.0316 µM
[26] = second compound 1 µM, first compound 0.1 µM
[27] = second compound 1 µM, first compound 0.316 µM
[28] = second compound 1 µM, first compound 1 µM
[29] = second compound 1 µM, first compound 3.16 µM
[30] = second compound 1 µM, first compound 10 µM
[31] = second compound 3.16 µM, first compound 0.0316 µM
[32] = second compound 3.16 µM, first compound 0.1 µM
[33] = second compound 3.16 µM, first compound 0.316 µM
[34] = second compound 3.16 µM, first compound 1 µM
[35] = second compound 3.16 µM, first compound 3.16 µM
[36] = second compound 3.16 µM, first compound 10 µM
[37] = second compound 10 µM, first compound 0.0316 µM
[38] = second compound 10 µM, first compound 0.1 µM
[39] = second compound 10 µM, first compound 0.316 µM
[40] = second compound 10 µM, first compound 1 µM
[41] = second compound 10 µM, first compound 3.16 µM
[42] = second compound 10 µM, first compound 10 µM
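Also: spheroids exposed to compounds for seven days before readout.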

CC1COCCN1c1cc(C2(S(C)(=N)=O)CC2)nc(-c2ccnc3[nH]ccc23)n1 (configuration not stated) + Nc1ccc(C#CCN(C(=O)Cc2ncc(C(F)(F)F)cc2C(F)(F)F)c2ccc(F)cc2)nn1
inactive: viability, T/C [7] 85.9% | viability, T/C [8] 110% | viability, T/C [9] 107% | viability, T/C [10] 81.7% | viability, T/C [11] 60.8% | viability, T/C [12] 43.2% | viability, T/C [13] 95.3% | viability, T/C [14] 104% | viability, T/C [15] 88.8% | viability, T/C [16] 79% | viability, T/C [17] 63.4% | viability, T/C [18] 45.3% | viability, T/C [19] 108% | viability, T/C [20] 107% | viability, T/C [21] 85.4% | viability, T/C [22] 83.2% | viability, T/C [23] 64.2% | viability, T/C [24] 43.2% | viability, T/C [25] 100% | viability, T/C [26] 102% | viability, T/C [27] 90.1% | viability, T/C [28] 74.6% | viability, T/C [29] 57.6% | viability, T/C [30] 45.4% | viability, T/C [31] 96.2% | viability, T/C [32] 88.1% | viability, T/C [33] 89.3% | viability, T/C [34] 84.7% | viability, T/C [35] 59.9% | viability, T/C [36] 45.4% | viability, T/C [37] 96.5% | viability, T/C [38] 91.3% | viability, T/C [39] 93.5% | viability, T/C [40] 71.4% | viability, T/C [41] 71.1% | viability, T/C [42] 49.9%
6.95 µM: IC50 [5]
6.27 µM: IC50 [1]
7.41 µM: IC50 [2]
6.44 µM: IC50 [4]
> 10 µM: IC50 [6]
6.97 µM: IC50 [3]

O=C(c1cc(Cc2n[nH]c(=O)c3ccccc23)ccc1F)N1CCN(C(=O)C2CC2)CC1
inactive: viability, T/C (compound 0.0316 µM) 110% and 84.9% and 98.6% | viability, T/C (compound 0.1 µM) 108% and 96.5% and 87.8% | viability, T/C (compound 0.316 µM) 96.2% and 105% and 95.9% | viability, T/C (compound 1 µM) 101% and 98.2% and 108% | viability, T/C (compound 3.16 µM) 94.1% and 79.9% and 110% | viability, T/C (compound 10 µM) 72.3% and 76.5% and 84.3%
> 10 µM: IC50 (curve of compound)

COc1cc2cc(C(=O)CCC(=O)O)sc2cc1OC + COC1C(OC(N)=O)C(O)C(Oc2ccc3c(O)c(NC(=O)c4ccc(O)c(CC=C(C)C)c4)c(=O)oc3c2C)OC1(C)C
inactive: viability, T/C [7] 82% | viability, T/C [8] 98.3% | viability, T/C [9] 79.9% | viability, T/C [10] 79% | viability, T/C [11] 106% | viability, T/C [12] 93.8% | viability, T/C [13] 91.4% | viability, T/C [14] 95.5% | viability, T/C [15] 98.1% | viability, T/C [16] 79.2% | viability, T/C [17] 92.5% | viability, T/C [18] 111% | viability, T/C [19] 104% | viability, T/C [20] 102% | viability, T/C [21] 84% | viability, T/C [22] 97.2% | viability, T/C [23] 84.4% | viability, T/C [24] 79.7% | viability, T/C [25] 110% | viability, T/C [26] 112% | viability, T/C [27] 103% | viability, T/C [28] 94.2% | viability, T/C [29] 110% | viability, T/C [30] 122% | viability, T/C [31] 90.6% | viability, T/C [32] 91.1% | viability, T/C [33] 86.6% | viability, T/C [34] 77.4% | viability, T/C [35] 84.1% | viability, T/C [36] 90% | viability, T/C [37] 76.4% | viability, T/C [38] 98.1% | viability, T/C [39] 108% | viability, T/C [40] 116% | viability, T/C [41] 112% | viability, T/C [42] 91.9%
> 10 µM: IC50 [1] | IC50 [2] | IC50 [3] | IC50 [4] | IC50 [5] | IC50 [6]

Nc1ccc(C#CCN(C(=O)Cc2ncc(C(F)(F)F)cc2C(F)(F)F)c2ccc(F)cc2)nn1
> 10 µM: IC50 (compound alone, run of 01/19/2024)
inactive: viability, T/C (compound 0.0316 µM) 97.7% [middle of 13 runs] | viability, T/C (compound 0.1 µM) 104% [middle of 13 runs] | viability, T/C (compound 0.316 µM) 102% [middle of 13 runs] | viability, T/C (compound 1 µM) 99.5% [middle of 13 runs] | viability, T/C (compound 10 µM) 99.5% [middle of 13 runs]
